ChEMBL document CHEMBL1131507, “Arylpiperazines with serotonin-3 antagonist activity: a comparative molecular field analysis” (J Med Chem, 1998)

What follows are compounds tested against T1, Serotonin 3 (5-HT3) receptor (Rattus norvegicus, UniProt P35563+Q9JJ16) (assay: Rat 5-hydroxytryptamine 3 receptor (5-HT3) antagonist).
T1 sequence (P35563 whole entry): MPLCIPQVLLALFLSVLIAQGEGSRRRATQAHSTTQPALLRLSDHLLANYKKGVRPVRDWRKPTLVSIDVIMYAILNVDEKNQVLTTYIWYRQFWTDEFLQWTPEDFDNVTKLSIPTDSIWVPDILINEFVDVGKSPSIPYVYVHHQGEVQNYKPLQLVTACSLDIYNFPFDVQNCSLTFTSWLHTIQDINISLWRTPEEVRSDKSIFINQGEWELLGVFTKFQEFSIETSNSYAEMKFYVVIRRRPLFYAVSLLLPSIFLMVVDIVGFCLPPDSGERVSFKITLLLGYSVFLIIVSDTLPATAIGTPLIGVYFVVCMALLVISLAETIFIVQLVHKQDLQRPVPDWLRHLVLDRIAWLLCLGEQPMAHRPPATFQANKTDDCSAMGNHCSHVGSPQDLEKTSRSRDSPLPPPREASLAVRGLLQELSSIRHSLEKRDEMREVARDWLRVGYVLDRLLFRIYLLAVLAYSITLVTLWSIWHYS
T1 sequence (Q9JJ16 whole entry): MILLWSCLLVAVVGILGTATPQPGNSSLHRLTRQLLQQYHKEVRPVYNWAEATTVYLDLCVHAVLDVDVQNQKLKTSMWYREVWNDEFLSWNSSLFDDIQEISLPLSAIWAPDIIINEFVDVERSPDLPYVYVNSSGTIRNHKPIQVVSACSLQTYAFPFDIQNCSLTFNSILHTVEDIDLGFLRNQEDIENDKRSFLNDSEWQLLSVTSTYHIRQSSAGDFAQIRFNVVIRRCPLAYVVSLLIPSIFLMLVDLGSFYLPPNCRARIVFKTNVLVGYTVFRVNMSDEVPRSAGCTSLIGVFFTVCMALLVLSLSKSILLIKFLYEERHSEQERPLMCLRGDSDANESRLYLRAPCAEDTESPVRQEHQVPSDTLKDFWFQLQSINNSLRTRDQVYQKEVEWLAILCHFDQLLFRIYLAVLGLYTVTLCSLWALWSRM
Type: functional
`CCN1CCN(c2nc3ccccc3c3c2cc(OC)c2ccccc23)CC1` was tested, and the Ki was 224 nM. `COc1cc2c(SCCN(C)C)nc3ccccc3c2c2ccccc12` was tested, and the Ki was 10000 nM. `CN1CCN(c2nc3ccccc3c3c2CCCC3)CC1` showed a Ki of 0.0977 nM. Work on `c1ccc2c(c1)ccc1c(N3CCNCC3)nc3ccccc3c12` yielded a Ki of 132 nM. In the case of `CN1CCN(c2nc3ccccc3c3c2CSCC3)CC1`, the Ki is reported as 0.398 nM. `CCc1c(C)c(N2CCN(C)CC2)nc2ccccc12` was tested, and the Ki was 0.537 nM. `CN(C)CCSc1nc2ccccc2c2c1ccc1ccccc12` was tested, and the Ki was 10000 nM. `CN(C)CCSc1nc2ccccc2c2c1COc1ccccc1-2` showed a Ki of 10000 nM. With `CN1CCN(c2nc3ccccc3c3c2CN(C)CC3)CC1` the Ki was 3.16 nM. `CN1CCN(c2nc3ccccc3c3c2CCC3)CC1` was tested, and the Ki was 0.0708 nM. `CN(C)CCSc1nc2ccccc2c2c1CCc1ccccc1-2` gave a Ki of 10000 nM. With `c1ccc2c3c(c(N4CCNCC4)nc2c1)CCCC3` the Ki was 0.1 nM.
